In BindingDB's records for doi:10.1016/j.bmcl.2009.12.099 (Methylgene, 2010):

Assays:
[1] = Inhibition of c-MET in human A549 cells by wound healing assay
[2] = Inhibition of c-MET in human DU145 cells by scattering assay

| IC50 [1] | IC50 [2] | Structure (SMILES) |
| --- | --- | --- |
| 2000 nM | 10000 nM | COc1ccccc1NC(=O)CC(Nc1ccc(Oc2ccnc3cc(-c4cn(C)cn4)sc23)c(F)c1)C(F)(F)F (stereo unspecified) [4,4,4-trifluoro-3-(3-fluoro-4-(2-(1-methyl-1H-imidazol-4-yl)thieno[3,2-b]pyridin-7-yloxy)phenylamino)-N-(2-methoxyphenyl)butanamide] |
| 400 nM | 400 nM | Cn1cnc(-c2cc3nccc(Oc4ccc(NC(CC(=O)Nc5ccc(F)cc5)C(F)(F)F)cc4F)c3s2)c1 (stereo unspecified) [4,4,4-trifluoro-3-(3-fluoro-4-(2-(1-methyl-1H-imidazol-4-yl)thieno[3,2-b]pyridin-7-yloxy)phenylamino)-N-(4-fluorophenyl)butanamide] |
| 2000 nM | 2000 nM | Cn1cnc(-c2cc3nccc(Oc4ccc(NC(CC(=O)Nc5ccc(F)cc5)C(F)(F)F)cc4)c3s2)c1 (stereo unspecified) [4,4,4-trifluoro-N-(4-fluorophenyl)-3-(4-(2-(1-methyl-1H-imidazol-4-yl)thieno[3,2-b]pyridin-7-yloxy)phenylamino)butanamide] |
